One assay deals with T1, human MC3R (Homo sapiens, UniProt P41968).
T1 construct: expressed in transfected cells
Description: Intracellular cAMP levels in live cells, MC3R agonist activity. The format is cell-based. To be noted: cAMP split-luciferase reporter cell line stably expressing human MC3R; direct agonist effect, measurement window 1. The procedure: The stable cell lines were grown and maintained in selection media consisting of Dulbecco's modified Eagle media (DMEM) with 4.5 g/l D-glucose, and 4 mM L-glutamine (Thermo Fisher Scientific, Waltham, MA), supplemented with 10% fetal bovine serum, 100 units/ml penicillin, 100 μg/ml streptomycin, 2.5 μg/ml amphotericin B, 200 μg/ml hygromycin B (for positive selection of the GScAMP22f luciferase reporter), and Geneticin™ (G418) 700 μg/ml (for MC3R or MC4R selection). Actual serum concentration during the assay is estimated to be about 1%. Cell line identity is routinely verified by qPCR and MC3R- and MC4R-specific oligonucleotides.
The assay for the determination of the CAMP response in live cells was described previously. […] Ccells were seeded at a density of 20,000 cells per well using 384-well poly-D lysine-coated, clear bottom, and black-wall assay plates (Corning Inc. Corning, NJ). Cells were allowed to attach to the plates for 18 to 24 h after which growth media was removed and 20 ul of 4% D-luciferin (Promega) in CO2 independent, serum-free medium (Thermo Fisher Scientific) was added to each well. […] Intracellular cAMP levels were measured using an FDSS 7000EX Functional Drug Screening System (Hamamatsu Photonics, Hamamatsu, Japan) in the Center for Chemical Genomics at the Life Sciences Institute. This instrument allowed the in-line addition of test-peptides and receptor agonists while simultaneously acquiring the luminescence signal from live cells. […] A submaximal forskolin (20 μM) concentration was also included to serve as a normalization reference to account for cell number variations and differences in assay transducer efficiency between cell lines.
With this set up it was possible to evaluate the direct agonist effect of the test-peptides on the MC3R and MC4R cell lines during measurement window 1, while the antagonist profile in the presence of EC90 α-MSH was determined on measurement window 2. […] EC50 or IC50 potency values were determined by non-linear regression by fitting the data to a sigmoid four-parameter variable slope model using the GraphPad Prism version 8.4 software package (San Diego CA).
(In general: cAMP levels reflect the balance of adenylyl cyclase and phosphodiesterase activity.)

The target of the next assay is human MC4R (Homo sapiens, UniProt P32245). The experiment in a line: Intracellular cAMP levels in live cells, MC3R selectivity relative to MC4R. The format is cell-based. As to conditions: cAMP assays in human MC3R and human MC4R stable cell lines.

Non-standard residues stand in square brackets, D forms with d. Residues, ends and D or L forms follow the SMILES beside them. Phe(4-Br) = N[C@@H](Cc1ccc(Br)cc1)C(=O)O; Phe(4-Cl) = N[C@@H](Cc1ccc(Cl)cc1)C(=O)O; Phe(4-F) = N[C@@H](Cc1ccc(F)cc1)C(=O)O; Phe(4-I) = N[C@@H](Cc1ccc(I)cc1)C(=O)O; 2Nal = N[C@@H](Cc1ccc2ccccc2c1)C(=O)O; NMeY = CN[C@@H](Cc1ccc(O)cc1)C(=O)O; Nle = CCCC[C@H](N)C(=O)O; dAbu = CC[C@@H](N)C(=O)O

Usually EC50 stands for the concentration giving half of the maximal effect.

T1 sequence (P41968 whole entry): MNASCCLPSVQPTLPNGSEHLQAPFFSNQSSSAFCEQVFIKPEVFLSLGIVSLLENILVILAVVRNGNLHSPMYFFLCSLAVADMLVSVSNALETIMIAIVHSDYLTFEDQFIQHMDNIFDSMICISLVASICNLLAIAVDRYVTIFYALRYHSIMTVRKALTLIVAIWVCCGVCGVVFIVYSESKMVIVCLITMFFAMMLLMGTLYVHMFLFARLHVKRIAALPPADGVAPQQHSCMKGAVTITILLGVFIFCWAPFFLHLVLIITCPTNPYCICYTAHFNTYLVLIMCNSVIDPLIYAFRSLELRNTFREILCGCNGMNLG
Sequence of human MC4R (P32245 whole entry): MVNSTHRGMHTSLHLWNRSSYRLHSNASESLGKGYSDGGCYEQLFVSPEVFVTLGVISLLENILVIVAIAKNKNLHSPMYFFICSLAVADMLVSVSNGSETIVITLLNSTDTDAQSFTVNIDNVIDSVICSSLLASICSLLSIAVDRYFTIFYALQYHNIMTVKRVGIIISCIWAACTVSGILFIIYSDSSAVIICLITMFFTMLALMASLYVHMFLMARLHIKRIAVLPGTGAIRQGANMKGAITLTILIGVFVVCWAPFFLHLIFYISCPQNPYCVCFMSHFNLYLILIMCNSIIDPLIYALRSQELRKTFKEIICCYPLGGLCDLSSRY

The compound `CCCC[C@H](NC(=O)[C@@H](NC(=O)[C@@H](N)Cc1ccc(O)cc1)C(C)C)C(=O)N[C@H](C)C(=O)N[C@@H](Cc1c[nH]cn1)C(=O)N[C@@H](Cc1ccccc1)C(=O)N[C@@H](CCCNC(=N)N)C(=O)N[C@H](Cc1c[nH]c2ccccc12)C(=O)N[C@@H](CC(=O)O)C(=O)N[C@@H](CCCNC(=N)N)C(=O)N[C@@H](Cc1ccccc1)C(N)=O` [CTX-1119, Tyr-Val-Nle-D-Ala-His-Phe-Arg-D-Trp-Asp-Arg-Phe] (H-YV[Nle][dA]HFR[dW]DRF-NH2) had an EC50 at human MC3R of 1.9 nM. Further, the “MC3R selectivity (relative to MC4R)” value at human MC4R amounted to 24.
The matching figures for `CC(C)[C@H](NC(=O)[C@@H](N)Cc1ccc(O)cc1)C(=O)N[C@@H](CCC(=O)O)C(=O)N[C@H](C)C(=O)N[C@@H](Cc1c[nH]cn1)C(=O)N[C@H](Cc1ccccc1)C(=O)N[C@@H](CCCNC(=N)N)C(=O)N[C@H](Cc1c[nH]c2ccccc12)C(=O)N[C@@H](CC(=O)O)C(=O)N[C@@H](CCCNC(=N)N)C(=O)N[C@@H](Cc1ccccc1)C(=O)NCC(=O)O` [CTX-1106, Tyr-Val-Glu-D-Ala-His-D-Phe-Arg-D-Trp-Asp-Arg-Phe-Gly] (H-YVE[dA]H[dF]R[dW]DRFG-OH): 5.8 nM and 120.
The matching figures for `CCCC[C@H](NC(C)=O)C(=O)N[C@H](CC)C(=O)N[C@@H](Cc1c[nH]cn1)C(=O)N[C@@H](Cc1ccccc1)C(=O)N[C@@H](CCCNC(=N)N)C(=O)N[C@H](Cc1c[nH]c2ccccc12)C(=O)N[C@@H](CC(=O)O)C(=O)N[C@@H](CCCNC(=N)N)C(=O)N[C@@H](Cc1ccccc1)C(=O)NCC(=O)O` [CTX-1144, Nle-D-Abu-His-Phe-Arg-D-Trp-Asp-Arg-Phe-Gly] (Ac-[Nle][dAbu]HFR[dW]DRFG-OH): 6.6 nM and 2,633.
The matching figures for `CCCC[C@H](NC(=O)[C@@H](NC(=O)[C@@H](N)Cc1ccc(O)cc1)C(C)C)C(=O)N[C@@H](C)C(=O)N[C@@H](Cc1c[nH]cn1)C(=O)N[C@@H](Cc1ccccc1)C(=O)N[C@@H](CCCNC(=N)N)C(=O)N[C@H](Cc1c[nH]c2ccccc12)C(=O)N[C@@H](CC(=O)O)C(N)=O` [CTX-1129, Tyr-Val-Nle-Ala-His-Phe-Arg-D-Trp-Asp] (H-YV[Nle]AHFR[dW]D-NH2): 1.2 nM and 7.5.
As to `CCCC[C@H](NC(=O)[C@@H](NC(=O)[C@@H](N)Cc1ccc(O)cc1)C(C)C)C(=O)N[C@H](C)C(=O)N[C@@H](Cc1c[nH]cn1)C(=O)N[C@@H](Cc1ccc(Cl)cc1)C(=O)N[C@@H](CCCNC(=N)N)C(=O)N[C@H](Cc1c[nH]c2ccccc12)C(=O)N[C@@H](CC(=O)O)C(=O)N[C@@H](CCCNC(=N)N)C(=O)N[C@@H](Cc1ccccc1)C(=O)NCC(=O)O` [CTX-2121, Tyr-Val-Nle-D-Ala-His-Phe(4-Cl)-Arg-D-Trp-Asp-Arg-Phe-Gly] (H-YV[Nle][dA]H[Phe(4-Cl)]R[dW]DRFG-OH), the EC50 at human MC3R was 2.5 nM. Moreover, on human MC4R, the “MC3R selectivity (relative to MC4R)” value is 93.
`CCCC[C@H](NC(=O)[C@@H](NC(=O)[C@H](Cc1ccc(O)cc1)NC)C(C)C)C(=O)N[C@H](C)C(=O)N[C@@H](Cc1c[nH]cn1)C(=O)N[C@@H](Cc1ccccc1)C(=O)N[C@@H](CCCNC(=N)N)C(=O)N[C@H](Cc1c[nH]c2ccccc12)C(=O)N[C@@H](CC(=O)O)C(=O)N[C@@H](CCCNC(=N)N)C(=O)N[C@@H](Cc1ccccc1)C(=O)NCC(=O)O` [CTX-1124, NMe-Tyr-Val-Nle-D-Ala-His-Phe-Arg-D-Trp-Asp-Arg-Phe-Gly] (H-[NMeY]V[Nle][dA]HFR[dW]DRFG-OH) came in with an EC50 at human MC3R of 1.7 nM. Further, on human MC4R, the “MC3R selectivity (relative to MC4R)” value was found to be 69.
The matching figures for `CCCC[C@H](NC(C)=O)C(=O)N[C@H](C)C(=O)N[C@@H](Cc1c[nH]cn1)C(=O)N[C@@H](Cc1ccc(Br)cc1)C(=O)N[C@@H](CCCNC(=N)N)C(=O)N[C@H](Cc1c[nH]c2ccccc12)C(=O)N[C@@H](CC(=O)O)C(=O)N[C@@H](CCCNC(=N)N)C(=O)N[C@@H](Cc1ccccc1)C(=O)NCC(=O)O` [CTX-1165, Nle-D-Ala-His-Phe(4-Br)-Arg-D-Trp-Asp-Arg-Phe-Gly] (Ac-[Nle][dA]H[Phe(4-Br)]R[dW]DRFG-OH): 3 nM and 5598.
The matching figures for `CCCC[C@H](NC(C)=O)C(=O)N[C@H](CC)C(=O)N[C@@H](Cc1c[nH]cn1)C(=O)N[C@@H](Cc1ccc(I)cc1)C(=O)N[C@@H](CCCNC(=N)N)C(=O)N[C@H](Cc1c[nH]c2ccccc12)C(=O)N[C@@H](CC(=O)O)C(=O)N[C@@H](CCCNC(=N)N)C(=O)N[C@@H](Cc1ccccc1)C(=O)NCC(=O)O` [CTX-1191, Nle-D-Abu-His-Phe(4-I)-Arg-D-Trp-Asp-Arg-Phe-Gly] (Ac-[Nle][dAbu]H[Phe(4-I)]R[dW]DRFG-OH): 3.9 nM and 470.
The matching figures for `CCCC[C@H](NC(=O)CNC(=O)COCCOCCNC(=O)CNC(=O)CCc1ccc(I)cc1)C(=O)N[C@H](C)C(=O)N[C@@H](Cc1c[nH]cn1)C(=O)N[C@@H](Cc1ccccc1)C(=O)N[C@@H](CCCNC(=N)N)C(=O)N[C@H](Cc1c[nH]c2ccccc12)C(=O)N[C@@H](CC(=O)O)C(=O)N[C@@H](CCCNC(=N)N)C(=O)N[C@H](Cc1ccccc1)C(=O)NCC(=O)O` [CTX-1154, Gly-Nle-D-Ala-His-Phe-Arg-D-Trp-Asp-Arg-D-Phe-Gly]: 5.8 nM and 1070.
On human MC3R, `CCCC[C@H](NC(C)=O)C(=O)N[C@H](C)C(=O)N[C@@H](Cc1c[nH]cn1)C(=O)N[C@@H](Cc1ccc(F)cc1)C(=O)N[C@@H](CCCNC(=N)N)C(=O)N[C@H](Cc1c[nH]c2ccccc12)C(=O)N[C@@H](CC(=O)O)C(=O)N[C@@H](CCCNC(=N)N)C(=O)N[C@@H](Cc1ccccc1)C(=O)NCC(=O)O` [CTX-1518, Nle-D-Ala-His-Phe(4-F)-Arg-D-Trp-Asp-Arg-Phe-Gly] (Ac-[Nle][dA]H[Phe(4-F)]R[dW]DRFG-OH) returned an EC50 of 1.9 nM. The “MC3R selectivity (relative to MC4R)” value at human MC4R was 1,559.
The matching figures for `CCCC[C@H](NC(C)=O)C(=O)N[C@H](C)C(=O)N[C@@H](Cc1c[nH]cn1)C(=O)N[C@@H](Cc1ccc2ccccc2c1)C(=O)N[C@@H](CCCNC(=N)N)C(=O)N[C@H](Cc1c[nH]c2ccccc12)C(=O)N[C@@H](CC(=O)O)C(=O)N[C@@H](CCCNC(=N)N)C(=O)N[C@@H](Cc1ccccc1)C(=O)NCC(=O)O` [CTX-1512, Nle-D-Ala-His-Nal(2')-Arg-D-Trp-Asp-Arg-Phe-Gly] (Ac-[Nle][dA]H[2Nal]R[dW]DRFG-OH): 13.1 nM and 804.
The matching figures for `CCCC[C@H](NC(=O)[C@@H](NC(=O)[C@@H](N)Cc1ccc(O)cc1)C(C)C)C(=O)N[C@H](C)C(=O)N[C@@H](Cc1c[nH]cn1)C(=O)N[C@H](Cc1ccccc1)C(=O)N[C@@H](CCCNC(=N)N)C(=O)N[C@H](Cc1c[nH]c2ccccc12)C(=O)N[C@@H](CC(=O)O)C(N)=O` [CTX-1109, Tyr-Val-Nle-D-Ala-His-D-Phe-Arg-D-Trp-Asp] (H-YV[Nle][dA]H[dF]R[dW]D-NH2): 13.1 nM and 10.6.
The matching figures for `CSCC[C@H](NC(=O)[C@@H](N)C(C)C)C(=O)NCC(=O)N[C@@H](Cc1c[nH]cn1)C(=O)N[C@@H](Cc1ccccc1)C(=O)N[C@@H](CCCNC(=N)N)C(=O)N[C@H](Cc1c[nH]c2ccccc12)C(=O)N[C@@H](CC(=O)O)C(=O)N[C@@H](CCCNC(=N)N)C(=O)N[C@@H](Cc1ccccc1)C(=O)NCC(=O)O` [CTX-1546, Val-Met-Gly-His-Phe-Arg-D-Trp-Asp-Arg-Phe-Gly] (H-VMGHFR[dW]DRFG-OH): 1.7 nM and 51.
Turning to `CCCC[C@H](NC(=O)[C@@H](NC(=O)[C@@H](N)Cc1ccc(O)cc1)C(C)C)C(=O)N[C@H](C)C(=O)N[C@@H](Cc1c[nH]cn1)C(=O)N[C@@H](Cc1ccccc1)C(=O)N[C@@H](CCCNC(=N)N)C(=O)N[C@H](Cc1c[nH]c2ccccc12)C(=O)N[C@@H](CC(=O)O)C(=O)N[C@@H](CCCNC(=N)N)C(=O)N[C@@H](Cc1ccccc1)C(=O)NCC(N)=O` [CTX-1118, Tyr-Val-Nle-D-Ala-His-Phe-Arg-D-Trp-Asp-Arg-Phe-Gly] (H-YV[Nle][dA]HFR[dW]DRFG-NH2), on human MC3R, the EC50 stood at 1.2 nM. On human MC4R, the “MC3R selectivity (relative to MC4R)” value came out at 59.
`CCCC[C@H](NC(C)=O)C(=O)N[C@H](C)C(=O)N[C@@H](Cc1c[nH]cn1)C(=O)N[C@@H](Cc1ccccc1)C(=O)N[C@@H](CCCNC(=N)N)C(=O)N[C@H](Cc1c[nH]c2ccccc12)C(=O)N[C@@H](CC(=O)O)C(=O)N[C@H](CCCNC(=N)N)C(=O)N[C@@H](Cc1ccccc1)C(=O)NCC(=O)O` [CTX-1146, Nle-D-Ala-His-Phe-Arg-D-Trp-Asp-D-Arg-Phe-Gly] (Ac-[Nle][dA]HFR[dW]D[dR]FG-OH) registered an EC50 at human MC3R of 170 nM.

The values above are taken from US20240287154A1, “MC3R AGONIST PEPTIDES” (The Regents of the University of Michigan, priority 2021, published 2024).
